The text below walks through data of ChEMBL document CHEMBL3600368, “Novel broad-spectrum inhibitors of bacterial methionine aminopeptidase” (Bioorg Med Chem Lett, 2015).

One may read the IC50 as the concentration that gives 50% inhibition. A high value points to a need for much substance. One may read the fraction unbound as free concentration divided by total concentration. Read a low fraction unbound as extensive binding. A word on the logD: it is the decadic logarithm of the distribution of all forms, ionised or not, between an organic phase and buffer at a given pH. Read a low logD as lower lipophilicity. One may read the solubility as the dissolved amount per volume that the medium holds. A lower solubility goes with a poorly soluble substance.

Data set [1] is described as follows: Inhibition of Escherichia coli methionine aminopeptidase.
Data set [2] is described as follows: Inhibition of Streptococcus pneumoniae methionine aminopeptidase.
Data set [3] in a line: Inhibition of Haemophilus influenzae methionine aminopeptidase.
The nature of data set [4]: Unbound fraction in plasma (unknown origin). Type of data set: ADME, cell-free.
Data set [5] is described as follows: Lipophilicity, log D of the compound. The class given is physicochemical. Particulars: octanol/water.
Data set [6] in a line: Solubility of the compound. The class given is physicochemical.
Data set [7] can be described thus: Intrinsic clearance in rat liver microsomes. Type of data set: ADME. The following applies: read-out: CLH.
Data set [8] is described as follows: Inhibition of Staphylococcus aureus methionine aminopeptidase.

In brackets after ≈: the same amount, converted by molar mass. Residues, ends and D or L forms follow the SMILES beside them. *: point of attachment. Cbz = O=C(OCc1ccccc1)*

Turning to `C[C@H](NC(=O)[C@H](C)NC(=O)OCc1ccccc1)C(N)=O` (Cbz-Ala-Ala-NH2), the IC50 in data set [1], in data set [2] and in data set [3] was above 200 µM each time.

In data set [4], `C[C@H](NC(=O)[C@@H](N)c1cccc(Cl)c1)C(=O)N[C@H]1CC=C[C@H](C2CCCCC2)N(C)C1=O` displayed a fraction unbound of 0.016. Further, the IC50 in data set [1] was determined as 0.8 µM; in data set [2], 0.3 µM; in data set [3], 1.1 µM. This compound also had a logD in data set [5] of 2.69. For the same compound, the solubility in data set [6] was 888 µM (≈ 409 µg/mL). Further, the microsomal CLint in data set [7] stood at 159 µL/min/mg.

As to `CN1C(=O)[C@@H](NC(=O)C(C)(C)NC(=O)OCc2ccccc2)CC=C[C@@H]1c1ccccc1`, the IC50 in data set [1], in data set [2] and in data set [3] was above 200 µM throughout.

Turning to `C[C@H](NC(=O)[C@@H](N)c1ccccc1)C(=O)N[C@H]1CC=C[C@H](C2CCCCC2)N(C)C1=O`, in data set [4], the fraction unbound was 0.108. Moreover, the IC50 in data set [1] turned out to be 1.4 µM; in data set [2], 0.12 µM; in data set [3], 6.7 µM. The logD in data set [5] is 1.98. Further, the solubility in data set [6] is above 1000 µM. In data set [7], the microsomal CLint was determined as 93.5 µL/min/mg.

For the compound `CN1C(=O)[C@@H](NC(=O)[C@H](CO)NC(=O)OCc2ccccc2)CC=C[C@@H]1c1ccccc1`, the IC50 in data set [1] is 102 µM; in data set [2] it was 71.4 µM; in data set [3] it was 132 µM.

As to `C[C@H](NC(=O)Cc1cc(F)cc(F)c1)C(=O)N[C@H]1CC=C[C@H](c2ccccc2)N(C)C1=O`, the IC50 in data set [8] is above 200 µM; in data set [1], 30 µM; in data set [2], 46 µM; in data set [3], 60 µM. Further, the free fraction (fraction unbound) in data set [4] was 0.051. This compound displayed a logD in data set [5] of 2.6. The solubility in data set [6] is 450 µM (≈ 199 µg/mL). In addition, the microsomal CLint in data set [7] stood at 339 µL/min/mg.

In the case of `C[C@H](NC(=O)[C@H](N)c1ccccc1)C(=O)N[C@H]1CC=C[C@H](C2CCCCC2)N(C)C1=O`, the figures for the IC50 in data set [1], in data set [2] and in data set [3] were 8 µM, 4 µM and 15.6 µM, respectively.

With `C[C@@H](C(=O)N[C@H]1CC=C[C@H](c2ccccc2)N(C)C1=O)N(C)C(=O)OCc1ccccc1`, the IC50 in data set [1], in data set [2] and in data set [3] was above 200 µM each time.

Consider `CC(=O)N[C@@H](C)C(=O)N[C@H]1CC=C[C@H](c2ccccc2)N(C)C1=O`, for which the IC50 in data set [1], in data set [2] and in data set [3] was above 200 µM each time.

Turning to `C[C@H](NC(=O)[C@@H](N)Cc1ccccc1)C(=O)N[C@H]1CC=C[C@H](C2CCCCC2)N(C)C1=O`, the fraction unbound in data set [4] is 0.109. The IC50 in data set [1] came to 2.2 µM; in data set [2], 9.7 µM; in data set [3], 4.7 µM. Moreover, in data set [5], the logD came to 2.2. In addition, the solubility in data set [6] was above 1000 µM. In addition, the microsomal CLint in data set [7] came out at 689 µL/min/mg.

Consider `CC(C)[C@H](NC(=O)OCc1ccccc1)C(=O)N[C@H]1CC=C[C@H](c2ccccc2)N(C)C1=O`, for which the IC50 in data set [1], in data set [2] and in data set [3] was above 200 µM in each case.

As for `C[C@H](N)C(=O)N[C@@H](C)C(=O)N[C@H]1CC=C[C@H](C2CCCCC2)N(C)C1=O`, the IC50 in data set [1], in data set [2] and in data set [3] was above 200 µM each time.

Regarding `C[C@H](NC(=O)OCc1ccccc1)C(=O)N[C@H]1CC=C[C@@H](c2ccccc2)N(C)C1=O`, the IC50 in data set [1], in data set [2] and in data set [3] was above 200 µM in each case.

Turning to `C[C@H](NC(=O)OCc1ccccc1)C(=O)N[C@H]1CC=C[C@H](c2ccccc2)N(C)C1=O`, the fraction unbound in data set [4] amounted to 0.027. Also, the results for the IC50 in data set [1], in data set [2] and in data set [3] were 8.1 µM, 7.4 µM and 11.3 µM, respectively. This compound displayed a logD in data set [5] of 1.65. Also, in data set [6], the concentration in solution (solubility) came to 341 µM (≈ 144 µg/mL). The microsomal CLint in data set [7] came to 720 µL/min/mg.
